13 compounds from PubChem BioAssay (NCI) can be followed below.

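Assay format: 96-well plates, 48-hour exposure. Here, GI50 denotes the concentration required for 50% inhibition of growth. TGI is the concentration that stops growth completely.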

Among the test systems are MOLT-4 leukemia; OVCAR-3 ovarian; SK-MEL-2 melanoma; CAKI-1 renal; HOP-92 NSCLC; DU-145 prostate; SW-620 colon; M14 melanoma; HCT-116 colon; NCI-H460 lung.
Common to all, as to test: NCI anticancer screen, dose series, 48 h

Take `O=C/C=C/c1ccco1`: the TGI with MOLT-4 leukemia, with OVCAR-3 ovarian, in the experiment with SK-MEL-2 melanoma, in the experiment on CAKI-1 renal, with HOP-92 NSCLC and with DU-145 prostate was above 100 µM throughout. Also, the TGI in the experiment on SW-620 colon, with M14 melanoma and in the experiment on HCT-116 colon was above 100 µM throughout.

In the case of `COc1cc(C2C(C(=O)O)=C(COC(C)=O)Oc3cc4c(cc32)OCO4)cc(OC)c1OC` (centres undefined), the TGI with MOLT-4 leukemia, in the experiment with OVCAR-3 ovarian, in the experiment on SK-MEL-2 melanoma, in the experiment with CAKI-1 renal, in the experiment with SW-620 colon and in the experiment with M14 melanoma was above 100 µM in each case. For the same compound, the TGI in the experiment on NCI-H460 lung and in the experiment with HCT-116 colon was above 100 µM each time.

As for `O=C1/C(=C/c2ccc(Cl)cc2)N=C(c2ccccc2)N1CCc1cccs1`, the GI50 is 16.5 µM in the experiment on MOLT-4 leukemia; 16.7 µM in the experiment with OVCAR-3 ovarian; 14 µM in the experiment on SK-MEL-2 melanoma; 20.4 µM in the experiment with CAKI-1 renal; 3.49 µM in the experiment with HOP-92 NSCLC; 42.7 µM in the experiment with DU-145 prostate. For the same compound, the GI50 was 30.6 µM in the experiment with SW-620 colon, 20.1 µM in the experiment with NCI-H460 lung and 6.65 µM in the experiment on HCT-116 colon. Besides, the TGI in the experiment on MOLT-4 leukemia was above 100 µM; in the experiment on OVCAR-3 ovarian, above 100 µM; in the experiment on SK-MEL-2 melanoma it was above 100 µM; in the experiment with CAKI-1 renal, above 100 µM; in the experiment with HOP-92 NSCLC it was 38.5 µM; in the experiment on DU-145 prostate, above 100 µM. Besides, the TGI in the experiment with SW-620 colon, with NCI-H460 lung and with HCT-116 colon was above 100 µM each time.

As to `N=C(N)SCc1ccc(Cl)cc1Cl` (tested in a mixture with another compound), the TGI with MOLT-4 leukemia was found to be 35.4 µM; with OVCAR-3 ovarian, 28.1 µM; in the experiment with SK-MEL-2 melanoma, 27.5 µM; in the experiment with CAKI-1 renal it was 24.2 µM; in the experiment on HOP-92 NSCLC it was 34.6 µM; in the experiment with DU-145 prostate it was 29.8 µM. Further, the TGI is 37.6 µM with SW-620 colon, 26.9 µM with M14 melanoma, 24.2 µM with NCI-H460 lung and 25 µM in the experiment on HCT-116 colon.

As for `CNC(=O)N(C)COC`, the TGI in the experiment with MOLT-4 leukemia, with OVCAR-3 ovarian, in the experiment on SK-MEL-2 melanoma, with CAKI-1 renal, in the experiment with SW-620 colon and in the experiment on M14 melanoma was above 100 µM in each case. The TGI with NCI-H460 lung and with HCT-116 colon was above 100 µM each time.

As to `O=C(O)c1cn2c3c(cc(N4CCN(CCO)CC4)cc3c1=O)SCC2`, the TGI in the experiment with MOLT-4 leukemia, with OVCAR-3 ovarian, in the experiment with SK-MEL-2 melanoma, in the experiment with CAKI-1 renal, in the experiment with HOP-92 NSCLC and in the experiment on SW-620 colon was above 100 µM each time. Further, the TGI in the experiment on NCI-H460 lung and with HCT-116 colon was above 100 µM in each case.

Take `COc1cc(/C=C/C(=O)c2c(C)nc3ccccc3c2C)ccc1OCCCOc1cc2c(cc1OC)C(=O)N1CCC[C@H]1C=N2`: the GI50 in the experiment with MOLT-4 leukemia was 0.0323 µM; in the experiment with OVCAR-3 ovarian, 0.0247 µM; with SK-MEL-2 melanoma it was 0.0877 µM; with CAKI-1 renal it was 0.0291 µM; with HOP-92 NSCLC, 0.0367 µM; in the experiment on DU-145 prostate it was 0.0279 µM. Moreover, in the experiment on NCI-H460 lung, the GI50 is 0.0292 µM. In addition, the TGI in the experiment on OVCAR-3 ovarian amounted to 0.0556 µM; in the experiment on SK-MEL-2 melanoma, 0.331 µM; in the experiment on CAKI-1 renal it was 0.138 µM; with HOP-92 NSCLC, 0.275 µM; in the experiment with DU-145 prostate, 0.0802 µM.

Turning to `CN(C)c1ccc(C(Cc2ccc3ccccc3n2)Cc2ccc3ccccc3n2)cc1`, the GI50 with CAKI-1 renal was 2.2 µM; in the experiment on HOP-92 NSCLC, 2.19 µM; in the experiment with DU-145 prostate it was above 100 µM; in the experiment on NCI-H460 lung, 3.14 µM; with HCT-116 colon it was 2.64 µM. Also, the TGI in the experiment on CAKI-1 renal is above 100 µM; in the experiment with HOP-92 NSCLC, 6.91 µM; in the experiment on DU-145 prostate, above 100 µM; in the experiment on NCI-H460 lung, above 100 µM; in the experiment on HCT-116 colon, above 100 µM.

As to `CCCCCCCCCCCCCC[n+]1ccc2c(C)c3c(c(C)c2c1)c1cc(O)ccc1n3CC`, the GI50 in the experiment on SK-MEL-2 melanoma was 0.256 µM; with HOP-92 NSCLC, 0.301 µM; in the experiment with DU-145 prostate, 0.381 µM; with NCI-H460 lung, 0.347 µM. Further, the TGI stood at 0.774 µM in the experiment with SK-MEL-2 melanoma, 1.32 µM in the experiment on HOP-92 NSCLC, 1.63 µM in the experiment with DU-145 prostate and 1.59 µM with NCI-H460 lung.

As for `CO/N=C(\C)COc1ccc2c(=O)c(-c3ccccc3)coc2c1`, the GI50 was above 100 µM in the experiment with MOLT-4 leukemia; 30.2 µM in the experiment on OVCAR-3 ovarian; 17.2 µM with HOP-92 NSCLC; 23.1 µM in the experiment with DU-145 prostate; above 100 µM with SW-620 colon; 93.7 µM in the experiment on M14 melanoma. The GI50 in the experiment on NCI-H460 lung is 30.4 µM; in the experiment with HCT-116 colon, 14.8 µM. Also, the TGI in the experiment on MOLT-4 leukemia was above 100 µM; in the experiment with OVCAR-3 ovarian, 74.2 µM; in the experiment on HOP-92 NSCLC, 43.9 µM; in the experiment on DU-145 prostate it was 52.7 µM; in the experiment with SW-620 colon it was above 100 µM; with M14 melanoma, above 100 µM. Moreover, the TGI was above 100 µM with NCI-H460 lung and 30 µM in the experiment on HCT-116 colon.

Regarding `CC(C)C1=CCC2C(=C1)CCC1C(C)(C(=O)O)CCCC21C` (centres undefined) (tested in a mixture with another compound), the TGI with MOLT-4 leukemia, with OVCAR-3 ovarian, with SK-MEL-2 melanoma, with CAKI-1 renal, in the experiment with HOP-92 NSCLC and in the experiment with DU-145 prostate was above 100 µM in each case. Further, the TGI in the experiment on SW-620 colon, in the experiment on M14 melanoma and in the experiment with HCT-116 colon was above 100 µM each time.

With `CCc1ccc2nc(-c3ccc(O)cc3)sc2c1`, the TGI with MOLT-4 leukemia was determined as 40.8 µM; in the experiment on OVCAR-3 ovarian it was 28.1 µM; in the experiment on SK-MEL-2 melanoma, 31.9 µM; with CAKI-1 renal, 26.4 µM; in the experiment with DU-145 prostate, 28.9 µM; in the experiment on SW-620 colon it was 38 µM. For the same compound, the TGI is 35.5 µM in the experiment with M14 melanoma, 41.3 µM in the experiment on NCI-H460 lung and 30.4 µM in the experiment with HCT-116 colon.

In the case of `N#Cc1c(N)sc2c1-c1ccccc1OC2`, the TGI in the experiment on MOLT-4 leukemia was above 100 µM; in the experiment on OVCAR-3 ovarian it was 61.7 µM; in the experiment on SK-MEL-2 melanoma it was above 100 µM; in the experiment with HOP-92 NSCLC, above 100 µM; in the experiment on DU-145 prostate, above 100 µM; with SW-620 colon, above 100 µM. In addition, the TGI is above 100 µM with M14 melanoma, above 100 µM with NCI-H460 lung and 82.8 µM with HCT-116 colon.
